Earlier results on one compound are cited in patent publication US20140349957A1, “Compositions for Photodynamic Therapy Chemically Modified to Increase Epithelia Penetration and Cellular Bioavailability” (YAGNA LIMITED, priority 2011, published 2014).

This data set concerns cells which have incorporated the drug.

As to `Cc1cn([C@H]2C[C@H](O)[C@@H](CO)O2)c(=O)[nH]c1=S` [4 thiothymidine, 4-thiothymidine], the “toxicity of exposure to drug alone” value (drug alone, no UV-A) was “does not result in appreciable toxicity”. Further, the “toxicity to cells upon excitation” value (excitation at 335 nm (UV-A)) is listed as “results in toxicity to the cells which have incorporated the drug”.
